Measurements reported in patent US7192981B2, “3,4-dihydroxyhydrocinnamic acid derivative” (Bionutrigen Co., Ltd., priority 2005, dated 2007).

System: isolated rat epididymal adipocytes
Experiment: Glucose transport assay (2-DOG uptake)
Assay type: cell-based
Details: for glucose transport at higher doses: rat adipocytes, 4 h

COc1ccc(Cl)cc1C(=O)NCCc1ccc(S(=O)(=O)NC(=O)NC2CCCCC2)cc1 [glyburide, reference compound]
glucose transport at higher doses: decreased

insulin
glucose transport (insulin at the indicated concentrations, 30 min): increased glucose transport in a dose-dependent manner

CN(C)C(=N)N=C(N)N [metformin, reference compound]
glucose transport at higher doses: remained unchanged
